The record followed here is publication PMC9820592, “Novel Chiral Ru(II) Complexes as Potential c-myc G-quadruplex DNA Stabilizers Inducing DNA Damage to Suppress Triple-Negative Breast Cancer Progression” (International Journal of Molecular Sciences, 2022).

Where only a bound is given, the exact number is not on record here.

The subject of data set [1] is c-myc G-quadruplex DNA. The data set is described as follows: FRET melting assay. The data set is classed as binding, human. As to conditions: free DNA Tm 59.5 °C. The method, then:
Carboxy fluorescein (FAM) and 6-carboxytetramethyl rhodamine (TAMRA) double fluorescent-labeled c-myc G4 DNA (5′−FAM-TGAGGGTGGGAGGGGTAA-TAMRA−3′) were heated to 95 °C in Tris-HCl-KCl buffer (containing 10 mM Tris-HCl, 100 mM KCl, pH 7.4) for 5 min and slowly cooled to room temperature. To ds26, double-stranded DNA ([…]) is a competitive binder, research Λ/Δ−3 with c-myc G4 selectivity binding ability of DNA. A Bio-Radiq5 real-time PCR detection system was used to measure the fluorescence melting curve. Approximately 1 μM (5 μL) FPU22T was mixed with a series of 5 μL compound solutions of different concentrations, and 15 μLTris-HCl-KCl buffer was added to the PCR 8 tube to obtain a total volume of 25 μL. A real-time fluorescence quantitative PCR instrument was used, and incubation was performed at 30 °C for 30 min. The program temperature range was set to 30–95 °C at a temperature interval of 1 °C, and recording was performed after balancing for 30 s to detect the fluorescence value of FAM. The conditions of the reaction system were similar to those of the FRET melting point test except that different concentrations of ds26 were added.

The next data set has as its system CNE-1 cells. The data set is described as follows: MTT assay, CNE-1 cells. In kind it is cell-based, human. The following applies: 72 h, read-out: Inhibitory Effect (IC50/μM) CNE-1. The method, then: (§1) Liver cancer HepG2 cells, lung cancer A549 cells, breast cancer MCF-7 and MDA-MB-231 cells, human nasopharyngeal carcinoma CNE-1 cells, and human immortalized keratinocyte HaCaT cells were seeded in 96-well plates (5 × 10^3 cells per well) and cultured at 37 °C and 5% CO2 for 24 h. Cells were treated with different concentrations of the complexes (0, 1.5625, 3.125, 6.25, 12.5, 25, 50, and 100 µM) for 72 h. After adding 20 µL MTT (5 mg/mL) solution to each well, the cells were incubated for 4 h, and then 150 µL DMSO was added to each well. The optical density of each well was detected by a microplate reader at a wavelength of 570 nm. The cell survival rate (%) = A(experimental group)/A(control group) × 100%, and the IC50 value was analyzed and calculated based on the survival rate.
A general note: Tetrazolium assays rely on reduction of a dye to a coloured formazan, in cell work by metabolically active cells.

Another data set relates to HepG2 cells. The data set is described as follows: MTT assay, HepG2 cells. As to conditions: 72 h, read-out: Inhibitory Effect (IC50/μM) HepG2. The data set is classed as cell-based, human. How it is done: as §1
Another data set deals with HaCaT cells. The data set is described as follows: MTT assay, normal HaCaT keratinocytes. The data set is classed as cell-based. As to conditions: 72 h, normal human keratinocytes, read-out: Inhibitory Effect (IC50/μM) HaCaT. The method, then:
as §1

Data set [2] deals with c-myc G-quadruplex DNA. The data set is described as follows: PCR-stop assay. As to conditions: Taq polymerase. In kind it is biochemical, human. The method, then:
In this study, c-myc G4 DNA and its reverse complementary sequence c-myc rev were heated to 95 °C for 5 min, allowed to cool to room temperature, and incubated at 4 °C overnight. The system was supplemented with dNTPs and Taq polymerase for PCR amplification; heated at 95 °C for 3 min, 94 °C for 30 s, and 58 °C for 30 s, with an extension at 72 °C for 30 s (30 cycles); and analyzed by 15% nondenatured polyacrylamide gel electrophoresis and silver staining.

The next data set deals with A549 cells. The data set is described as follows: MTT assay, A549 cells. In kind it is cell-based, human. As to conditions: 72 h, read-out: Inhibitory Effect (IC50/μM) A549. The method, then:
as §1

Data set [3] has as its system MDA-MB-231 cells. The data set is described as follows: MTT assay, MDA-MB-231 cells. The data set is classed as cell-based, human. The following applies: 72 h, read-out: Inhibitory Effect (IC50/μM) MDA-MB-231. The method, then: as §1
The test system of data set [4] is MDA-MB-231 cells. The data set is described as follows: EdU proliferation assay. The data set is classed as cell-based, human. The following applies: control 50.2%. How it is done:
The inhibitory effect of the chiral DPPZ-based Ru(II) complexes (Λ/Δ−1−3) was assessed against different human tumor cancer cells, such as breast cancer MCF-7, MDA-MB-231, lung cancer A549, liver carcinoma HepG2, nasopharyngeal carcinoma CNE-1, and human normal keratinocyte HaCaT cells, by MTT assay. […] Moreover, the inhibition of MDA-MB-231 cell proliferation by Δ−3 was detected by using an EdU (5-ethynyl-2′-deoxyuridine) staining kit, and EdU was incorporated into newly synthesized DNA in the sample cells. The red fluorescent azide is small enough to diffuse freely through native tissues and DNA, and it covalently cross-links to the EdU in a “click” chemistry reaction.

Data set [5] has as its system MDA-MB-231 cells. The data set is described as follows: ICP detection of Ru content in cells. The data set is classed as cell-based, human. The following applies: 24 h, control 0.4. How it is done:
MDA-MB-231 cells were seeded in 10 cm cell culture dishes. After cell adherence, the cells were treated with the drug (0, 2.5, 5, and 10 μM) for 24 h. After 24 h, the cells were washed with PBS three times and collected by trypsin. The number of collected cells was counted by a cell counter. Then, the cells were digested in 1 mL HNO3 solution by microwave digestion at 120 °C for 3 min, and 1 mL of this solution was transferred to a 5 mL volumetric flask, diluted with distilled water to volume, and mixed. The Ru content of these solutions was analyzed by an ICP optical emission spectrometer (NCS, Plasma 2000). All measurements were repeated three times.

For another data set, the system named is MCF-7 cells. The data set is described as follows: MTT assay, MCF-7 cells. The data set is classed as cell-based, human. As to conditions: 72 h, read-out: Inhibitory Effect (IC50/μM) MCF-7. How it is done: as §1

Broadly, the ΔTm is the shift of the melting midpoint relative to a reference. As to Λ-[Ru(bpy)2(3-NBEDPPZ)](ClO4)2 [Λ−3], the results for the thermal shift (ΔTm) entry with c-myc G-quadruplex DNA [1] (complex 0.5 μM) and with c-myc G-quadruplex DNA [1] (complex 1.0 μM) were “approximately 2.2 °C” and ~4.9 °C, respectively. Also, the IC50 with CNE-1 cells is > 100 µM; in the data set with HepG2 cells it was 74.8 ± 2.4 µM; in the data set with HaCaT cells it was > 100 µM; in the data set on A549 cells, 55.4 ± 2.4 µM; with MDA-MB-231 cells [3], 53.5 ± 1.7 µM. In the data set with c-myc G-quadruplex DNA [2], the “minimum concentration necessary for effective inhibition (PCR products)” value came to 5 µM. The “proliferation rate (EdU)” value stood at 34.0% with MDA-MB-231 cells [4] (10 μM), 27.5% in the data set on MDA-MB-231 cells [4] (20 μM) and 11.3% in the data set with MDA-MB-231 cells [4] (40 μM). Further, the “Ru content in cells” value in the data set with MDA-MB-231 cells [5] (2.5 μM) worked out at 0.56 ng/mL per 1 × 10^4 cells; in the data set with MDA-MB-231 cells [5] (5 μM) it was 1.44 ng/mL per 1 × 10^4 cells; in the data set with MDA-MB-231 cells [5] (10 μM) it was 2.47 ng/mL per 1 × 10^4 cells.
For the molecule Λ-[Ru(bpy)2(BrDPPZ)](ClO4)2 [Λ−2], the IC50 is > 100 µM in the data set on CNE-1 cells; > 100 µM in the data set with MCF-7 cells; > 100 µM in the data set on HepG2 cells; > 100 µM in the data set on HaCaT cells; 91.5 ± 10.8 µM with A549 cells; 92.1 ± 12.1 µM in the data set with MDA-MB-231 cells [3].
Consider Δ-[Ru(bpy)2(BrDPPZ)](ClO4)2 [Δ−2], for which the IC50 is > 100 µM in the data set with CNE-1 cells; > 100 µM with MCF-7 cells; > 100 µM in the data set with HepG2 cells; > 100 µM in the data set with HaCaT cells; 89.9 ± 11.3 µM in the data set with A549 cells; 94.5 ± 9.1 µM with MDA-MB-231 cells [3].
Turning to Δ-[Ru(bpy)2(DPPZ)](ClO4)2 [Δ−1], the IC50 in the data set with CNE-1 cells, in the data set on MCF-7 cells, in the data set with HepG2 cells, in the data set with HaCaT cells, in the data set on A549 cells and in the data set with MDA-MB-231 cells [3] was > 100 µM each time.
For the molecule `N.N.[Cl][Pt][Cl]` [Cis-platin, cisplatin, reference compound], the IC50 in the data set with MCF-7 cells came out at 14.27 ± 0.07 µM; in the data set on HepG2 cells, 12.7 ± 0.7 µM; in the data set with HaCaT cells it was 7.1 ± 0.5 µM; in the data set on A549 cells, 9.9 ± 0.25 µM; in the data set on MDA-MB-231 cells [3] it was 25.9 ± 1.9 µM.
Consider Λ-[Ru(bpy)2(DPPZ)](ClO4)2 [Λ−1], for which the IC50 was > 100 µM in the data set on CNE-1 cells; > 100 µM in the data set with MCF-7 cells; > 100 µM in the data set on HepG2 cells; > 100 µM in the data set on HaCaT cells; > 100 µM in the data set on A549 cells; 60.8 ± 7.41 µM in the data set on MDA-MB-231 cells [3].
